# Measured values from US20070274956A1, “Plant Germination Inhibitor And Method Of Use Thereof” (priority 2004, published 2007).
# Test system: Oryzias latipes var.
# Experiment: Harm to fish grown in treated water
# Assay type: in vivo
# Settings: 10 males and 10 females grown in aqueous solution, 1×10^−2 g/l; one week
# Procedure: Forty Oryzias latipes var. (20 males and 20 females) were divided into two groups (each group: 10 males and 10 females). One group was grown in an aqueous solution of the coloring matter xylindein (1×10^−2 g/l) and the other was grown in water in the presence of wood on which mycelia of Chlorociboria aeruginosa developed and which was rotten and stained blue.
structure (smiles),measurement,value
CCC[C@H]1Cc2c(c(O)c3c(=O)cc4oc5c6c(c(O)c7c(=O)cc8oc2c3c4c8c57)C(=O)O[C@@H](CCC)C6)C(=O)O1 [xylindein],anomaly in the fish,no anomaly was observed
